Data taken from paper PMC3720808 (European journal of medicinal chemistry, 2013).
Read-outs that look alike come from different tables or passages of the source.

How the values were obtained:
[1] = biological target: T1, Axl (Homo sapiens, UniProt P30530); experiment: Microfluidic capillary electrophoresis; assay type: biochemical
T1 sequence (P30530 26-894): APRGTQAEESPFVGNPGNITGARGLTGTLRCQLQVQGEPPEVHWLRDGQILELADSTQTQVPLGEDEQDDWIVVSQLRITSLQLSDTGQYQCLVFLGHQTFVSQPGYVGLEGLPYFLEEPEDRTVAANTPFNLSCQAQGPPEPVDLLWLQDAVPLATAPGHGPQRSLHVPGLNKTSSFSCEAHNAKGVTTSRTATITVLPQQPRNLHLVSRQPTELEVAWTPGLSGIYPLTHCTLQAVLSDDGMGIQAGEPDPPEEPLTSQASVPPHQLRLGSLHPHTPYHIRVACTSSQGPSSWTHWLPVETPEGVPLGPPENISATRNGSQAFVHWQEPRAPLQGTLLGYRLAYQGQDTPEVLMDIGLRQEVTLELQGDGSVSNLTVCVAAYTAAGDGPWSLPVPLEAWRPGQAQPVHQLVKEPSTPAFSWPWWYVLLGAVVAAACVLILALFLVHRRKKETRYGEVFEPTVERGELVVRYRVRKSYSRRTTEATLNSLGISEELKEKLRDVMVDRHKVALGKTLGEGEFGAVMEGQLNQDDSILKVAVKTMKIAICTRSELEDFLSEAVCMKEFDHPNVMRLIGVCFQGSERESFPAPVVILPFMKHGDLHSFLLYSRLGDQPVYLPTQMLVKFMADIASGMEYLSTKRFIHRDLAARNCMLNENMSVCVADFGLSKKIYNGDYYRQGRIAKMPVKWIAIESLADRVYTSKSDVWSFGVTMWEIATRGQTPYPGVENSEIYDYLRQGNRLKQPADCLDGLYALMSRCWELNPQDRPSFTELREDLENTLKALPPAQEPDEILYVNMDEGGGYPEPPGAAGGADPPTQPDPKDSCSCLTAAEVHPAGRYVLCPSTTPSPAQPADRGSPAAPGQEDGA

[2] = biological target: T2, Tyro3 (Homo sapiens, UniProt Q06418); experiment: Microfluidic capillary electrophoresis; assay type: biochemical
T2 sequence (Q06418 41-890): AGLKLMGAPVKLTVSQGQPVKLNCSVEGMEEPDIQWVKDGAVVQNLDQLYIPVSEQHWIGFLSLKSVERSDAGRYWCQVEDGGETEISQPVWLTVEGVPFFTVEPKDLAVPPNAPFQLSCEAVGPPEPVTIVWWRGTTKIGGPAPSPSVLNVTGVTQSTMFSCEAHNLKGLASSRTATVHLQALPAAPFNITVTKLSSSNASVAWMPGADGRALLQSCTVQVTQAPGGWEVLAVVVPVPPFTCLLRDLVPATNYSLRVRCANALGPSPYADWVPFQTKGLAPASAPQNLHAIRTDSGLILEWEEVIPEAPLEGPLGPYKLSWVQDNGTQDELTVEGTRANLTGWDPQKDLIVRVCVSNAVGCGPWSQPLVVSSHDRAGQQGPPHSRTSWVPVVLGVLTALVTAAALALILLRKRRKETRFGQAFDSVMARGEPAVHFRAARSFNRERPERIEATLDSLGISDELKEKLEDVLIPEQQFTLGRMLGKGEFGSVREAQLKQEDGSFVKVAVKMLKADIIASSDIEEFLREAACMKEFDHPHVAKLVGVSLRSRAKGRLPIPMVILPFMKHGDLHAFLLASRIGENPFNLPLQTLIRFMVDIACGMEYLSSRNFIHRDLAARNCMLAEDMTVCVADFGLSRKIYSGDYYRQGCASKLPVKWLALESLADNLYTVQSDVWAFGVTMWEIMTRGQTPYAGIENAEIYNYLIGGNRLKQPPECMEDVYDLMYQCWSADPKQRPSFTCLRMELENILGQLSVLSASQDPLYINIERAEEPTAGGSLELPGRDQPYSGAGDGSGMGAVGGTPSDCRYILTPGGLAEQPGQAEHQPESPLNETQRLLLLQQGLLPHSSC

[3] = biological target: T3, Mer (Homo sapiens, UniProt Q12866); experiment: Microfluidic capillary electrophoresis; assay type: biochemical
T3 sequence (Q12866 21-999): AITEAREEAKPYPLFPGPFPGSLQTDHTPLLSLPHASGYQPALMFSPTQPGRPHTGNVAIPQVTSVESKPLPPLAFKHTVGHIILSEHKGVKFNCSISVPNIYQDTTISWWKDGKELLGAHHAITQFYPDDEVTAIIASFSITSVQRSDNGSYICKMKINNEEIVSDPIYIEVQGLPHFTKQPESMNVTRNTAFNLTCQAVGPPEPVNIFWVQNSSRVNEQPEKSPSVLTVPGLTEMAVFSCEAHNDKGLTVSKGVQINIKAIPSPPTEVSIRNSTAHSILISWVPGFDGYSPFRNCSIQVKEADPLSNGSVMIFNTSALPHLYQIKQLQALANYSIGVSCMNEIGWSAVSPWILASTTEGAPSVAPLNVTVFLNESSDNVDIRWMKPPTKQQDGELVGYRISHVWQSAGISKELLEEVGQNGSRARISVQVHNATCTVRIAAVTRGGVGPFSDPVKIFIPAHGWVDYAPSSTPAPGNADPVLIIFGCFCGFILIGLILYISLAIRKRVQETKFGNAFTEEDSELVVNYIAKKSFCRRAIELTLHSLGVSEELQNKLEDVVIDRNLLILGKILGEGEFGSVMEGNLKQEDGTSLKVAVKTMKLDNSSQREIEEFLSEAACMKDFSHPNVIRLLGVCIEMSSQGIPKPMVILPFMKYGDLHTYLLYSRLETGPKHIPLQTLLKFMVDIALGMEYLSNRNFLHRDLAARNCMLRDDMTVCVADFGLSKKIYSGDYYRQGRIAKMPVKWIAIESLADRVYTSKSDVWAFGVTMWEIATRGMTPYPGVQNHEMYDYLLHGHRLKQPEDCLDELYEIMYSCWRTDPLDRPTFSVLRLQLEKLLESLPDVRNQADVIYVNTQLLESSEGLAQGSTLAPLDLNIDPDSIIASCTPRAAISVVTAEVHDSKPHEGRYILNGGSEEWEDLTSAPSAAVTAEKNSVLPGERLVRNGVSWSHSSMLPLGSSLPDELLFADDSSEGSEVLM

[4] = biological target: hERG channel (Homo sapiens, UniProt Q12809); experiment: hERG PatchXpress assay / hERG binding assay; details: read-out: hERG EC50
[5] = test system: A549 cells; experiment: Soft agar colony formation assay, A549; details: 2 weeks
[6] = test system: Colo699 cells; experiment: Soft agar colony formation assay, Colo699; details: 2 weeks

Chain of hERG channel (Q12809 whole entry): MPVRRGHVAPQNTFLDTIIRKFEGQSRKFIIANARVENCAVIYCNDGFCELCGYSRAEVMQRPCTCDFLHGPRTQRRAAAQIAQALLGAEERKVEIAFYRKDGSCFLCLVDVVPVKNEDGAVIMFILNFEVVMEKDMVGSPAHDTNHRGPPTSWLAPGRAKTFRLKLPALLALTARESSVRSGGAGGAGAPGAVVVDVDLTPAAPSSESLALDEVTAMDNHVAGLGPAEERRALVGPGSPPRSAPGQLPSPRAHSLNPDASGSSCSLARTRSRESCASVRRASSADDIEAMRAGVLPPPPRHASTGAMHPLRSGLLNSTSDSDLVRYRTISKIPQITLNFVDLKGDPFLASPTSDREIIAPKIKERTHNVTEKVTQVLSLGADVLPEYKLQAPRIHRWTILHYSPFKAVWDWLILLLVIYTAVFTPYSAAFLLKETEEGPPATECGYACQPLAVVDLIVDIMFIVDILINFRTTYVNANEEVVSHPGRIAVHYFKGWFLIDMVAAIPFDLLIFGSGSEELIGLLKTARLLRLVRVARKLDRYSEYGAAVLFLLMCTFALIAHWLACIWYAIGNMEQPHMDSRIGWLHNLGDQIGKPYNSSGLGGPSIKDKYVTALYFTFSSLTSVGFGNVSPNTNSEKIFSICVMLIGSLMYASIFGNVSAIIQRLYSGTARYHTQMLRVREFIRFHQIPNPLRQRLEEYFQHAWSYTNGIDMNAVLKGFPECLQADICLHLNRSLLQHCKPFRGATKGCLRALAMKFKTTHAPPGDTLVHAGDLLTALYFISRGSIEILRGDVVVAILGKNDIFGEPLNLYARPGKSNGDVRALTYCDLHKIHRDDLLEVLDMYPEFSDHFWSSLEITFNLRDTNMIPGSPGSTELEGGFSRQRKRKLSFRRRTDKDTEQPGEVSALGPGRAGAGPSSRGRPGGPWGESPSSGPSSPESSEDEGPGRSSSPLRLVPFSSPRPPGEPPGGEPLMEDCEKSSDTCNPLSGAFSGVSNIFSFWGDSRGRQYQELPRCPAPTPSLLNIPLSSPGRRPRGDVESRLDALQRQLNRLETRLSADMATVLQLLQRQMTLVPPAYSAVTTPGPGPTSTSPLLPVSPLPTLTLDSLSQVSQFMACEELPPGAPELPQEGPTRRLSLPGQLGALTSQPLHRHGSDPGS

IC50 [1] [nM] | IC50 [2] [nM] | SMILES | also measured
67 | 31 | CCCCNc1ncc2c(-c3ccc(S(=O)(=O)NC4CCCC4)cc3)nn([C@H]3CC[C@H](O)CC3)c2n1 [Compound 24, trans-4-(6-(Butylamino)-1-(4-hydroxycyclohexyl)-1H-pyrazolo[3,4-d]pyrimidin-3-yl)-N-cyclopentylbenzenesulfonamide] | –
62 | 35 | CCCCNc1ncc2c(-c3ccc(S(=O)(=O)NCCC)cc3)nn([C@H]3CC[C@H](O)CC3)c2n1 [Compound 21, trans-4-(6-(Butylamino)-1-(4-hydroxycyclohexyl)-1H-pyrazolo[3,4-d]pyrimidin-3-yl)-N-propylbenzenesulfonamide] | –
69 | 28 | CCCCNc1ncc2c(-c3ccc(S(=O)(=O)NC4CCOCC4)cc3)nn([C@H]3CC[C@H](O)CC3)c2n1 [Compound 26, trans-4-(6-(Butylamino)-1-(4-hydroxycyclohexyl)-1H-pyrazolo[3,4-d]pyrimidin-3-yl)-N-(tetrahydro-2H-pyran-4-yl)benzenesulfonamide] | –
23 | 76 | CCCCNc1ncc2c(-c3ccc(S(=O)(=O)N4CCC(C(=O)N5CCOCC5)CC4)cc3)nn([C@H]3CC[C@H](O)CC3)c2n1 [Compound 36, trans-(1-((4-(6-(Butylamino)-1-(4-hydroxycyclohexyl)-1H-pyrazolo[3,4-d]pyrimidin-3-yl)phenyl)sulfonyl)piperidin-4-yl)(morpholino)methanone] | IC50 [3]: 1.4 nM
140 | 130 | CCCCNc1ncc2c(-c3ccc(S(=O)(=O)NC)cc3)nn(C[C@H]3CC[C@H](O)CC3)c2n1 [Compound 7, 4-(1-((trans-4-Hydroxycyclohexyl)methyl)-6-(butylamino)-1H-pyrazolo[3,4-d]pyrimidin-3-yl)-N-methylbenzenesulfonamide] | –
6500 | 290 | CCCCNc1ncc2c(-c3ccc(S(=O)(=O)Nc4ccc(F)cc4)cc3)nn([C@H]3CC[C@H](O)CC3)c2n1 [Compound 27, trans-4-(6-(Butylamino)-1-(4-hydroxycyclohexyl)-1H-pyrazolo[3,4-d]pyrimidin-3-yl)-N-(4-fluorophenyl)benzenesulfonamide] | –
350 | 45 | CCCCNc1ncc2c(-c3ccc(S(=O)(=O)NC4CCCCC4)cc3)nn([C@H]3CC[C@H](O)CC3)c2n1 [Compound 25, trans-4-(6-(Butylamino)-1-(4-hydroxycyclohexyl)-1H-pyrazolo[3,4-d]pyrimidin-3-yl)-N-cyclohexylbenzenesulfonamide] | –
59 | 27 | CCCCNc1ncc2c(-c3ccc(S(=O)(=O)NC)cc3)nn(C[C@H]3CC[C@H](N)CC3)c2n1 [Compound 2, 4-(1-((trans-4-Aminocyclohexyl)methyl)-6-(butylamino)-1H-pyrazolo[3,4-d]pyrimidin-3-yl)-N-methylbenzenesulfonamide] | –

The remaining lines, values behind:

SMILES | IC50 [1] [nM] | IC50 [2] [nM] | also measured
CCCCNc1ncc2c(-c3ccc(S(N)(=O)=O)cc3)nn([C@H]3CC[C@H](O)CC3)c2n1 [Compound 20, trans-4-(6-(Butylamino)-1-(4-hydroxycyclohexyl)-1H-pyrazolo[3,4-d]pyrimidin-3-yl)benzenesulfonamide] | 29 | 54 | IC50 [3]: 1.4 nM
CCCCNc1ncc2c(-c3ccc(F)cc3)nn(CC3CCC(N)CC3)c2n1 (stereo not drawn) [UNC569] | – | – | EC50 [4]: 1700 nM
CCCCNc1ncc2c(-c3ccc(NS(C)(=O)=O)cc3)nn([C@H]3CC[C@H](O)CC3)c2n1 [Compound 18, trans-N-(4-(6-(Butylamino)-1-(4-hydroxycyclohexyl)-1H-pyrazolo[3,4-d]pyrimidin-3-yl)phenyl)methanesulfonamide] | 110 | 35 | –
CCCCNc1ncc2c(-c3ccc(S(=O)(=O)N4CCOCC4)cc3)nn([C@H]3CC[C@H](O)CC3)c2n1 [Compound 35, trans-4-(6-(Butylamino)-3-(4-(morpholinosulfonyl)phenyl)-1H-pyrazolo[3,4-d]pyrimidin-1-yl)cyclohexanol] | – | – | colony formation in soft agar [5]: inhibited colony formation; colony formation in soft agar [6]: inhibited colony formation
CCCCNc1ncc2c(-c3ccc(S(=O)(=O)NC(C)C)cc3)nn([C@H]3CC[C@H](O)CC3)c2n1 [Compound 22, trans-4-(6-(Butylamino)-1-(4-hydroxycyclohexyl)-1H-pyrazolo[3,4-d]pyrimidin-3-yl)-N-isopropylbenzenesulfonamide] | 120 | 68 | –
CCCCNc1ncc2c(-c3ccc(S(=O)(=O)N4CCCC4)cc3)nn([C@H]3CC[C@H](O)CC3)c2n1 [Compound 34, trans-4-(6-(Butylamino)-3-(4-(pyrrolidin-1-ylsulfonyl)phenyl)-1H-pyrazolo[3,4-d]pyrimidin-1-yl)cyclohexanol] | – | – | IC50 ([3]; read-out: IC50 Mer, ATP at Km, mean of two or more independent assays): 0.65 nM; IC50 ([1]; read-out: IC50 Axl, ATP at Km, mean of two or more independent assays): 46 nM; IC50 ([2]; read-out: IC50 Tyro3, ATP at Km, mean of two or more independent assays): 22 nM
